Results published in ChEMBL document CHEMBL2406999, “Vialinin A is a ubiquitin-specific peptidase inhibitor” (Bioorg Med Chem Lett, 2013).
The source made the active and inactive calls. No cut-off for these calls is given here.

Tests used:
[1] = target: T1, Ubiquitin carboxyl-terminal hydrolase 8 (Homo sapiens) (UniProt P40818); experiment: Inhibition of human USP8 using Ub-AMC as substrate at 1 to 30 uM after 60 mins by fluorometric analysis
T1 sequence (whole entry): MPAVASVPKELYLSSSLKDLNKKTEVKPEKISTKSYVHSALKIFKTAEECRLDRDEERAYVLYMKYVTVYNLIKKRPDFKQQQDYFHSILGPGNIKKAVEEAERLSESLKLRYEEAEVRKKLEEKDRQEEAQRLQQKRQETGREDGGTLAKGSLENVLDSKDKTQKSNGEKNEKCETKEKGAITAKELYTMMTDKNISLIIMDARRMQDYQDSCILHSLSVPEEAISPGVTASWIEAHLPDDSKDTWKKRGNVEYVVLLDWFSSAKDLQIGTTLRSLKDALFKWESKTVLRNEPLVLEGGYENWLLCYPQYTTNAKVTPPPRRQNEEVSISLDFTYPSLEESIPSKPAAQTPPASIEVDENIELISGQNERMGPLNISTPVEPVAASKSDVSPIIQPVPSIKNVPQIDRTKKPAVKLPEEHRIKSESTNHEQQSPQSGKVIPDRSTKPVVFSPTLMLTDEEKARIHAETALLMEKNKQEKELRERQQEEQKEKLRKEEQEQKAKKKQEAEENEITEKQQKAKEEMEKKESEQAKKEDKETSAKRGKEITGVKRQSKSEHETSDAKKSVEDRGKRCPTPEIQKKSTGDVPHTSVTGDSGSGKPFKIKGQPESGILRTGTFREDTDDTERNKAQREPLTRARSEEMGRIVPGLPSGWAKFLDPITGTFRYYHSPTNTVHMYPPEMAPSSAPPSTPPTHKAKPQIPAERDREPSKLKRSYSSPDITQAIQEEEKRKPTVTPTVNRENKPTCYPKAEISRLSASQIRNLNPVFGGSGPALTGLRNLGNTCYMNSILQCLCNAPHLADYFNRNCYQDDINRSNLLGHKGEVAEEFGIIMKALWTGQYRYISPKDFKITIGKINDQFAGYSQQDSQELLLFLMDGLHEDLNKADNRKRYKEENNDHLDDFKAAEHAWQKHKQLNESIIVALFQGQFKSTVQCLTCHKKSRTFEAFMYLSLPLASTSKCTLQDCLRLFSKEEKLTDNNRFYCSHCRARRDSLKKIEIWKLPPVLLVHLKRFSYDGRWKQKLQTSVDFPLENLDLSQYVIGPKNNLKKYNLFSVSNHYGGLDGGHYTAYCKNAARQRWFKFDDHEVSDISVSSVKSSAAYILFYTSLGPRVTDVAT

[2] = target: T2, Ubiquitin carboxyl-terminal hydrolase 4 (Homo sapiens, UniProt Q13107); experiment: Inhibition of human USP4 using Ub-AMC as substrate after 60 mins by fluorometric analysis
T2 sequence (Q13107 whole entry): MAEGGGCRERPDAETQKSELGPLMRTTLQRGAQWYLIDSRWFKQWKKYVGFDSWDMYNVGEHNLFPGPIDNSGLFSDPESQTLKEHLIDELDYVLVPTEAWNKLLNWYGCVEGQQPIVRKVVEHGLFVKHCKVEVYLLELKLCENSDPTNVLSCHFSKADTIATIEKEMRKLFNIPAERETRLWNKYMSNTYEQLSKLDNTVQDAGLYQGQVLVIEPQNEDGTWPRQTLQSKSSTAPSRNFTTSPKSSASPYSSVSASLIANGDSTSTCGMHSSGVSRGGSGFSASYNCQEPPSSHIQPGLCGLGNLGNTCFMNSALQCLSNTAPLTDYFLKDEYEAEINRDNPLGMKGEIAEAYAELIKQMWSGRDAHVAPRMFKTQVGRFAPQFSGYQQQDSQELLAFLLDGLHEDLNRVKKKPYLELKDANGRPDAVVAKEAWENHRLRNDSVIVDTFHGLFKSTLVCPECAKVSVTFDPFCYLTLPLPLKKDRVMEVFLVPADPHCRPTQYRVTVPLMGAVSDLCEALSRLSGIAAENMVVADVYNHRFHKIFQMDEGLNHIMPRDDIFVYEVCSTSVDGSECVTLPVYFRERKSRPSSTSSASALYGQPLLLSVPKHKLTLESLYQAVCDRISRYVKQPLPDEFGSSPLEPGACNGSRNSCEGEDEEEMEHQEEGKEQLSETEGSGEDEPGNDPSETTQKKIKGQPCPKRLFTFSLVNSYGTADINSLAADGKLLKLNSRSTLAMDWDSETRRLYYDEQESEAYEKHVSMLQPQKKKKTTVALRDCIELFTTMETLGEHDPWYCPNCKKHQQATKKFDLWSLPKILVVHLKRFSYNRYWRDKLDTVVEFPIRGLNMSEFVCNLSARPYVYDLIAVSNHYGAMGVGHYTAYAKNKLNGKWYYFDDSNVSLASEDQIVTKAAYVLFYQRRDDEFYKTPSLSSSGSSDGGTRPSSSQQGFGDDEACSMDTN

[3] = test system: T3, Ubiquitin carboxyl-terminal hydrolase 5 (Homo sapiens), P45974 [C335A,H818A]; experiment: Competitive binding affinity to human USP5 C335A/H818A mutant by SDS-PAGE analysis in presence of biotin-DMT
T3 sequence (whole entry): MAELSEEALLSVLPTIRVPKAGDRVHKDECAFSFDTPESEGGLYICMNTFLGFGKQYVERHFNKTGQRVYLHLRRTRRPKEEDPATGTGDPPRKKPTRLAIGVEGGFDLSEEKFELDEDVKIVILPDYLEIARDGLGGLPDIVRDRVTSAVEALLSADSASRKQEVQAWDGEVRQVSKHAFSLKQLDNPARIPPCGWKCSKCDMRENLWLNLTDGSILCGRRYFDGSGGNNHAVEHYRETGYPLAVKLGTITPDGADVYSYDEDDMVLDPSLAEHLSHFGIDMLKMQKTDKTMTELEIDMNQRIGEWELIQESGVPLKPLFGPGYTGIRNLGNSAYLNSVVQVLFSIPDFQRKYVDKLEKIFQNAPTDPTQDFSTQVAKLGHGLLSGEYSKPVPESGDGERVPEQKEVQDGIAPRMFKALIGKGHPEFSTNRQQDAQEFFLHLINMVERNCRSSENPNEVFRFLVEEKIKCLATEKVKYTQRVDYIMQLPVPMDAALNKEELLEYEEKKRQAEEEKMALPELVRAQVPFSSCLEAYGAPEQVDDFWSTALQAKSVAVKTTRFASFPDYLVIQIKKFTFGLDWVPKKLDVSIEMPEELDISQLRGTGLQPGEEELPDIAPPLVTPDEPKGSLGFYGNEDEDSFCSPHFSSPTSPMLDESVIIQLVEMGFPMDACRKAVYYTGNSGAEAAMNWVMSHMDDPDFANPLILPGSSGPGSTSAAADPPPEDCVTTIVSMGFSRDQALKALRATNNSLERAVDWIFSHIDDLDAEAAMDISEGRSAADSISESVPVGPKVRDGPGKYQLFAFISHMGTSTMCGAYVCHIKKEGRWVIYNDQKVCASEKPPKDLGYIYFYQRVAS

SMILES: O=C(Cc1ccccc1)Oc1c(OC(=O)Cc2ccccc2)c(-c2ccc(O)cc2)c(O)c(O)c1-c1ccc(O)cc1 [VIALININ A]
- inhibition [1]: inactive
- IC50 [2]: 1500 nM
- Activity [3]: inactive
